Laboratory results taken from US9018196B2, “Development of a new formulation overcoming thymus atrophy with concomitantly enhancement of anti-inflammatory effect of dexamethasone” (Macau University of Science and Technology, priority 2013, dated 2015).

Experiments:
Format in all cases: in vivo, Balb/c mice
[1] = system: thymic architecture; assay: Histological examination of thymus; details: compared with DEX-treated animals
Procedure: (§1) Male Balb/c mice, weighing 19-21 g were sensitized through topical application of 20 μl of 0.5% (v/v) DNFB in acetone onto the shaved abdomen on days 1 and 2. Challenge was then preformed on day 6 by applying DNFB (20 μl, 0.5%, v/v) on the left inner and outer ear surfaces of mice. DMY (at dosage of 1 mg/ear) and/or DEX (1.5625 μg/ml) dissolved in acetone was topically applied (20 μl) to the ears at 2nd, 24th, 48th, 72nd, hour after the challenge. The edema was calculated as the difference between the thickness of left and right ear at the 24th, 48th and 72nd h after challenge. […] The control 100 group was treated only with DNFB or solvent solution.

[2] = system: ear edema of DTH mice induced by DNFB; assay: Delay-type hypersensitivity test (DTHT) in mice: ear edema; details: topical, DMY 1 mg/ear and/or DEX 1.5625 μg/ml, 24th, 48th, 72nd h after challenge, vs Model Group
Procedure: as §1
FIGS. 1a and 1b show the effects of DEX, DMY and the combinational application of DMY and DEX (illustrated as the DMY+DEX group) on treatment of ear edema of DTH mice induced by DNFB. Edema as expressed as the increase in ear thickness (ΔT in micrometer±S.E.M.) in the DNFB experiments. Percentages of inhibition (% I) for each measurement were calculated from values for the DEX, DMY and DMY+ DEX groups with respect to those for the Model Group. Statistically significant differences with respect to the Model Group are expressed as *P<0.05 and **P<0.01 (Dunnett's t test).
The animal model was conducted as mentioned in section 1.1 of Example 1 above. […]

[3] = system: mononuclear cell infiltrate in the ear; assay: Histological examination of ear inflammation; details: DNFB-treated mice, ear histology
Procedure: as §1
(§2) The animal model was conducted as mentioned in section 1.1 of Example 1 above. […] Antigens were retrieved by steaming samples in DAKO target retrieval buffer (DAKO) for 20 minutes. After the nonspecific binding sites were blocked, the sections were incubated overnight at 4° C. with CD4 or CD8 antibodies (Phoenix Pharmaceuticals).
(§3) Sections were stained with 3,3′-diaminobenzidine substrate and counterstained with Meyer hematoxylin and eosin.

[4] = system: CD4+ and CD8+ cells in the ears; assay: Immunohistochemical staining of CD4 and CD8 in ear sections; details: immunohistochemical analysis; in comparison with the Model Group
Procedure: as §1, §2, §3

[5] = system: signal-joint TRECs in thymocytes; assay: Quantification of signal-joint TRECs; details: compared with the DEX-treated animals
Procedure: as §1
DNA was isolated from purified thymic T cells using DNA purification kit. PCR was performed using mδRec- and ψJα-specific primers and an mδRec-ψJα fluorescent probe as described previously. The standard curves for murine TRECs were generated using a mδRec-ψJα TREC PCR product cloned into a pc DNA3.1 plasmid from Prof. Gregory D. Sempowski (Duke Human Vaccine Institute, Duke University Medical Center, Durham, N.C., USA.). The assay was performed on slides according to previous study.

[6] = system: thymocytes; assay: Flow cytometry assay for detection of thymocyte apoptosis (Annexin V-FITC and PI); details: DNFB-induced DTH mice, model group about 72%
Procedure: The animal model was conducted as mentioned in section 1.1 of Example 1 above. Thymocytes were washed by cold PBS and binding buffer, resuspended in binding buffer including Annexin V-FITC, and then incubated at room temperature for 10 minutes. After adding the binding buffer containing PI, the cells were incubated on ice for another 15 minutes. The data was analyzed by flow cytometry within one hour.

[7] = system: CD4+CD8+ thymocytes; assay: Flow cytometry assay for detection of CD4 and CD8 expression in thymocytes; details: DNFB-induced DTH mice, topical application; control and model groups about 76%
Procedure: as §1
The animal model was conducted as mentioned in section 1.1 of Example 1 above, in which after the mice were sacrificed by cervical dislocation, the thymocytes were isolated and washed by PBS. The cells were stained by 20 μL CD4 with CD8 for 30 min avoiding from light, followed by 4% PFA to fix the cells, and flow cytometery was then conducted.

Compound | thymic architecture (corticomedullary junctions) [1] | effect on ear edema (increase in ear thickness, percentages of inhibition) [2] | number of inflammatory cells in the ear [3] | accounts of CD4+ and CD8+ cells in the treated ears [4] | levels of signal-joint TRECs in thymocytes [5] | ratio of thymocyte apoptosis [6] [%] | CD4+CD8+ T cell population in thymus [7] [%]
O=C1c2c(O)cc(O)cc2O[C@H](c2cc(O)c(O)c(O)c2)[C@H]1O [DMY, dihydromyricetin] | significantly improve the thymic architecture | could inhibit ear edema | could be significantly reduced | shown to reduce the accounts of CD4+ and CD8+ cells | could increase the levels of signal-joint TRECs | – | –
C[C@@H]1C[C@H]2[C@@H]3CCC4=CC(=O)C=C[C@]4(C)[C@@]3(F)[C@@H](O)C[C@]2(C)[C@@]1(O)C(=O)CO [DEX, dexamethasone] | – | – | – | – | – | 77.9 | 54.7
